Series [1] relates to LNCaP. Description: Cell cycle arrest in testosterone-stimulated human LNCAP cells assessed as G1 phase accumulation at 8 uM after 3 days (reference value: 73.8%). In kind it is functional.
The subject of series [2] is LNCaP. Briefly: Cell cycle arrest in testosterone-stimulated human LNCAP cells assessed as G2/M phase accumulation at 8 uM after 5 days (reference value: 13.3%). It is filed as functional.
Series [3] concerns LNCaP. Briefly: Cell cycle arrest in testosterone-stimulated human LNCAP cells assessed as S phase accumulation at 8 uM after 5 days (reference value: 15.1%). In kind it is functional.
Series [4] concerns the target T1, Androgen receptor (Homo sapiens) (UniProt P10275).
T1 sequence (whole entry): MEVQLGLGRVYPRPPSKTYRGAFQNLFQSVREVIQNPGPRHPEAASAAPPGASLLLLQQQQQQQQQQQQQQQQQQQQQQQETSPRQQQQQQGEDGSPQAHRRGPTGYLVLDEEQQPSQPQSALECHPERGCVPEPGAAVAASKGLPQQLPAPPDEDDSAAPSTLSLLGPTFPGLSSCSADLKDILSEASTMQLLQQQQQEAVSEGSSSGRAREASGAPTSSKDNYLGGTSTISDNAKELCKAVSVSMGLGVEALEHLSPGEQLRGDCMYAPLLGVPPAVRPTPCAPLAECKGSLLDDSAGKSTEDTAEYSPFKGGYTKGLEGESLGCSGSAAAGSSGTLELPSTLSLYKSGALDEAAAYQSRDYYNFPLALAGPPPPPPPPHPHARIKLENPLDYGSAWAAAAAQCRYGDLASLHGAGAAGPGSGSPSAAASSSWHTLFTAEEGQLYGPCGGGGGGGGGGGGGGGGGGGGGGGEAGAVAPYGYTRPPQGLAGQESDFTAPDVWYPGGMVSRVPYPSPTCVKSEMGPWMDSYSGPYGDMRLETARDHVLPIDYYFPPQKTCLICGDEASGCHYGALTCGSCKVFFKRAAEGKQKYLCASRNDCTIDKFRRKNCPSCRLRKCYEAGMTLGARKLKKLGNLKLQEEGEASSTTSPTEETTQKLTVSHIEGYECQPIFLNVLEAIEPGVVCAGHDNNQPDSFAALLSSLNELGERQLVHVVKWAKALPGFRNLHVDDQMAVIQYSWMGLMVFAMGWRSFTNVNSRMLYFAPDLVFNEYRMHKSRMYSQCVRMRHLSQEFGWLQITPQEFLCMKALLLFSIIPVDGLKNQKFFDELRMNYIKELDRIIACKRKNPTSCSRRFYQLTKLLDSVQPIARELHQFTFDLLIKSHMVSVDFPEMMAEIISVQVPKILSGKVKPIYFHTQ
Description: Inhibition of AR signaling pathway in testosterone-stimulated human LNCAP cells assessed as cell growth inhibition by flow cytometry

A short description of series [5]: Selectivity index, ratio of GI50 for Balb/c mouse 3T3 clone A31 cells to GI50 for AR signaling pathway in testosterone-stimulated human LNCAP cells assessed as cell growth inhibition.
The subject of series [6] is LNCaP. Description: Cell cycle arrest in testosterone-stimulated human LNCAP cells assessed as S phase accumulation at 8 uM after 3 days (reference value: 14.1%). In kind it is functional.
In series [7] the test system is DU-145. Briefly: Growth inhibition of human DU145 cells at 100 uM after 72 hrs by MTT assay relative to control. In kind it is functional. As to conditions: DU-145, 72 h, read-out: GI. (Tetrazolium assays rely on reduction of a dye to a coloured formazan, in cell work by metabolically active cells.)
The target in series [8] is T1, Androgen receptor (Homo sapiens). Briefly: Inhibition of AR signaling pathway in testosterone-stimulated human LNCAP cells assessed as cell growth inhibition at 100 uM after 6 days by MTT assay relative to control.
Series [9] has as its system LNCaP. Description: Cell cycle arrest in testosterone-stimulated human LNCAP cells assessed as G2/M phase accumulation at 8 uM after 3 days (reference value: 8.2%). It is filed as functional.
In series [10] the test system is LNCaP. Briefly: Growth inhibition of human LNCAP cells at 100 uM after 72 hrs by MTT assay relative to control. In kind it is functional. The note with it: read-out: GI.
Series [11] concerns LNCaP. Description: Cell cycle arrest in testosterone-stimulated human LNCAP cells assessed as G0 phase accumulation at 8 uM after 3 days (reference value: 3.9%). In kind it is functional.
Series [12] concerns the target T1, Androgen receptor (Homo sapiens). The source holds these as a separate data set.
Description: Inhibition of AR signaling pathway in testosterone-stimulated human LNCAP cells assessed as cell growth inhibition after 6 days by MTT assay
Series [13] in a line: Growth inhibition of Balb/c mouse 3T3 clone A31 cells at 250 uM after 72 hrs by MTT assay relative to control. In kind it is cell-based. As to conditions: Balb/c 3T3 clone A31 cells, read-out: GI.
Series [14] has as its system PC-3. Description: Growth inhibition of human PC3 cells at 100 uM after 72 hrs by MTT assay relative to control. It is filed as functional. The note with it: PC-3, 72 h, read-out: GI.
The test system of series [15] is LNCaP. Description: Cell cycle arrest in testosterone-stimulated human LNCAP cells assessed as G0 phase accumulation at 8 uM after 5 days (reference value: 8.2%). In kind it is functional.
The test system of series [16] is LNCaP. Description: Cell cycle arrest in testosterone-stimulated human LNCAP cells assessed as G1 phase accumulation at 8 uM after 5 days (reference value: 63.4%). In kind it is functional.
Series [17] is described as follows: Growth inhibition of Balb/c mouse 3T3 clone A31 cells after 72 hrs by MTT assay. In kind it is cell-based. As to conditions: Balb/c 3T3 clone A31 cells.

The values that follow come from ChEMBL document CHEMBL4041540, “In silico selection and cell-based characterization of selective and bioactive compounds for androgen-dependent prostate cancer cell” (Bioorg Med Chem Lett, 2017).

The structures appear in SMILES notation. The source made the active and inactive calls. The calls are words filed in the database; no cut-off is given here.

Regarding `Cc1ccc2[nH]c3c(SCC(=O)Nc4cccc(C#N)c4)ncnc3c2c1`, the Activity in [1] is reported as 64.6%; in series [2], 9.3%; in [3] it was 15.7%; in series [6] it was 18.4%; in series [9], 15.1%; in series [11] it was 1.9%. The Activity was 6.3% in [15] and 68.7% in [16]. Moreover, the 50% growth inhibitory concentration (GI50) (usually the concentration at which growth is held to half of that of the control) was found to be 22.6 µM in [4] and 22.4 µM in series [12]. Further, in series [5], the RatioGI50 was greater than 11. For the same molecule, the inhibition of growth at 100 µM in [7], in series [10] and in series [14] was no more than 50% in each case. The inhibition entry in series [8] is “Active”. Besides, the inhibition at 72 h, 250 µM in [13] came out at 20%.
For the molecule `N#Cc1ccc(NC(=O)COC(=O)Cc2ccc(F)cc2)cc1Cl`, the inhibition of growth at 100 µM in series [7], in [10] and in series [14] was no more than 50% in each case. Further, the inhibition result in [8] is “inactive”.
In the case of `CC1CCCN(C(=O)C2CCN(c3ccc(C#N)cc3F)CC2)C1` (stereo unspecified), the inhibition of growth at 100 µM in [7], in [10] and in [14] was no more than 50% throughout. The inhibition entry in [8] was “inactive”.
`N#Cc1ccc(N2CCN(C(=O)c3ccc(=O)[nH]c3)CC2)c(F)c1`: the inhibition of growth at 100 µM in series [7], in series [10] and in [14] was no more than 50% in each case. Besides, the inhibition entry in [8] was “inactive”.
With `N#Cc1ccc(CN2CCN(C(=O)Cn3ccc(=O)[nH]c3=O)CC2)cc1`, the inhibition of growth at 100 µM in series [7], in series [10] and in [14] was no more than 50% each time. Also, in [8], the inhibition entry was “inactive”.
Take `N#Cc1ccc(CN2CCN(C(=O)c3ccc(F)c(F)c3)CC2)cc1`: the inhibition of growth at 100 µM in [7], in series [10] and in series [14] was no more than 50% each time. Besides, in series [8], the inhibition result is “inactive”.
For `CC(OC(=O)Cc1cc2c(s1)CCC2)C(=O)Nc1ccc(C#N)cc1` (stereo unspecified), the inhibition of growth at 100 µM in [7], in series [10] and in series [14] was no more than 50% throughout. Further, in series [8], the inhibition entry is “inactive”.
On to `CC(C(=O)Nc1ccc(C#N)cc1)N1CCN(c2ccc(O)cc2)CC1` (stereo unspecified), for which the inhibition of growth at 100 µM in series [7], in series [10] and in series [14] was no more than 50% in each case. The inhibition result in [8] was “inactive”.
With `O=C(CSc1ncnc2c1[nH]c1ccccc12)Nc1cccc(F)c1`, the inhibition of growth at 100 µM in [7], in series [10] and in [14] was no more than 50% each time. Moreover, in series [8], the inhibition result was “inactive”.
For `N#Cc1ccc(NC(=O)COC(=O)Cc2cccs2)cc1Cl`, the inhibition of growth at 100 µM in series [7], in series [10] and in series [14] was no more than 50% in each case. In addition, in series [8], the inhibition entry was “Active”.
Molecule `CNC(=O)c1ccc(N2C(=S)N(c3ccc(C#N)c(C(F)(F)F)c3)C(=O)C2(C)C)cc1F` [ENZALUTAMIDE] displayed a 50% growth inhibitory concentration (GI50) at 72 h in series [17] of 27.5 µM.
`O=C(CSc1ncnc2c1[nH]c1ccccc12)Nc1ccc(F)cc1`: the inhibition of growth at 100 µM in series [7], in [10] and in series [14] was no more than 50% each time. In series [8], the inhibition result was “inactive”.
On to `Cc1cc(NC(=O)N2CCN(c3ccc(C#N)cc3F)CC2)on1`, for which the inhibition of growth at 100 µM in series [7], in series [10] and in series [14] was no more than 50% each time. The inhibition result in series [8] was “inactive”.
For `N#Cc1ccc(NC(=O)COC(=O)Cc2ccc(Cl)c(Cl)c2)cc1`, the inhibition of growth at 100 µM in series [7], in series [10] and in series [14] was no more than 50% in each case. Further, the inhibition entry in [8] is “inactive”.
`N#Cc1cc(F)c(N2CCN(C(=O)c3ccsc3)CC2)c(F)c1`: the inhibition of growth at 100 µM in series [7], in [10] and in [14] was no more than 50% in each case. Also, the inhibition result in series [8] is “inactive”.
For the molecule `N#Cc1ccc(NC(=O)CSc2nc3ccc([N+](=O)[O-])cc3s2)cc1`, the inhibition of growth at 100 µM in series [7], in series [10] and in series [14] was no more than 50% in each case. In addition, in series [8], the inhibition result is “inactive”.
`N#Cc1ccc(C(=O)N2CCN(c3ccc(F)cc3)CC2)c(F)c1`: the inhibition of growth at 100 µM in series [7], in [10] and in series [14] was no more than 50% throughout. For the same molecule, the inhibition entry in [8] is “inactive”.
Turning to `N#Cc1ccc(CN2CCN(C(=O)C3CCCC3)CC2)c(F)c1`, the inhibition of growth at 100 µM in series [7], in [10] and in series [14] was no more than 50% each time. Also, the inhibition entry in series [8] is “inactive”.
